Reference: ChEMBL document CHEMBL4811289, “Antibacterial and Cytotoxic Phenyltetracenoid Polyketides from Streptomyces morookaense” (J Nat Prod, 2021)

Key:
[1] = test system: Enterococcus faecium; test: Antibacterial activity against vancomycin-sensitive Enterococcus faecium incubated for 6 to 8 hrs by MABA; type: functional; details: time 6-8 hrs
[2] = test system: MCF7; test: Cytotoxicity against human MCF7 cells assessed as reduction in cell viability after 72 hrs by MTT assay; type: functional, cell-based
[3] = test system: HepG2; test: Cytotoxicity against human HepG2 cells assessed as reduction in cell viability after 72 hrs by MTT assay; type: functional, cell-based
[4] = test system: A549; test: Cytotoxicity against human A549 cells assessed as reduction in cell viability after 72 hrs by MTT assay; type: functional, cell-based
[5] = test system: Vero; test: Cytotoxicity against African green monkey Vero cells assessed as reduction in cell viability after 72 hrs by MTT assay; type: cell-based, Chlorocebus sabaeus
[6] = test system: Staphylococcus aureus; test: Antibacterial activity against methicillin-sensitive Staphylococcus aureus incubated for 6 to 8 hrs by MABA; type: functional; details: time 6-8 hrs
[7] = test system: HeLa; test: Cytotoxicity against human HeLa cells assessed as reduction in cell viability after 72 hrs by MTT assay; type: functional, cell-based
[8] = test system: Staphylococcus aureus; test: Antibacterial activity against methicillin-resistant Staphylococcus aureus ATCC 6548 incubated for 6 to 8 hrs by MABA; type: functional; details: time 6-8 hrs
[9] = Chlorocebus sabaeus, Vero, 72 h

| SMILES | MIC [1] | IC50 ([2]; Homo sapiens, MCF7, 72 h) | IC50 ([3]; Homo sapiens, HepG2, 72 h) | IC50 ([4]; Homo sapiens, A549, 72 h) | IC50 [5, 9] | MIC [6] | IC50 ([7]; Homo sapiens, HeLa, 72 h) | MIC [8] | IC50 ([2]; mcf7) | IC50 ([3]; hepg2) | IC50 ([4]; a549) | IC50 ([5]; vero) | IC50 ([7]; hela) |
| --- | --- | --- | --- | --- | --- | --- | --- | --- | --- | --- | --- | --- | --- |
| COc1cc(C)c(-c2cc(OC)cc3cc4c(c(O)c23)C(=O)c2c(cc(OC)c(Cl)c2OC)C4(C)C)c(O)c1 | > 10 µg/mL | 7.9 µM | 3.2 µM | 6.4 µM | 5.8 µM | > 10 µg/mL | 4.1 µM | > 10 µg/mL |  |  |  |  |  |
| COc1cc(C)c(-c2cc(OC)c(Cl)c3cc4c(c(O)c23)C(=O)c2c(cc(OC)c(Cl)c2O)C4(C)C)c(O)c1 | > 10 µg/mL | 3.8 µM | 9.2 µM | 9 µM | 6.1 µM | > 10 µg/mL | 11.5 µM | > 10 µg/mL |  |  |  |  |  |
| COc1cc(C)c(-c2cc(OC)cc3cc4c(c(O)c23)C(=O)c2c(cc(OC)c(Cl)c2O)C4(C)C)c(O)c1 | > 10 µg/mL | 7.5 µM | 8.3 µM | 7.6 µM | 8.2 µM | > 10 µg/mL | 4.6 µM | > 10 µg/mL |  |  |  |  |  |
| COc1cc(C)c(-c2nc(C)cc3cc4c(c(O)c23)C(=O)c2c(cc(OC)c(Cl)c2OC)C4(C)C)c(OC)c1 | > 10 µg/mL | 4.4 µM | 9.5 µM | 14.5 µM | 6.1 µM | > 10 µg/mL | 3.4 µM | > 10 µg/mL | 8.7 µM | 8.7 µM | 12.6 µM | 10 µM | 3.3 µM |
| COc1cc2c(c(O)c1Cl)C(=O)c1c(cc3cc(O)cc(-c4c(C)c(Cl)c(O)c(Cl)c4O)c3c1O)C2(C)C |  | 9.2 µM | 4.5 µM | 4.6 µM | 12.5 µM |  | 6.1 µM |  |  |  |  |  |  |
| COc1cc(C)c(-c2cc(OC)c(Cl)c3cc4c(c(O)c23)C(=O)c2c(cc(OC)c(Cl)c2OC)C4(C)C)c(O)c1 | > 10 µg/mL | 13.1 µM | 15 µM | 8.3 µM | 9 µM | > 10 µg/mL | 15 µM | > 10 µg/mL |  |  |  |  |  |
| COc1cc(-c2c(O)cc(OC)c(Cl)c2C)c2c(O)c3c(cc2c1)C(C)(C)c1cc(OC)c(Cl)c(O)c1C3=O | > 10 µg/mL | 18.3 µM | 10.2 µM | 7.7 µM | 18 µM | > 10 µg/mL | 22.4 µM | > 10 µg/mL |  |  |  |  |  |
